Data reported in ChEMBL document CHEMBL5260820, “Discovery of novel steroidal histamine H3 receptor antagonists/inverse agonists” (Bioorg Med Chem Lett, 2017).

Columns and labels:
[1] = Displacement of [3H]quinuclidinyl benzilate from Wistar rat cortex muscarinic AChR assessed as inhibition constant by liquid scintillation counting analysis; format: tissue-based
Histamine H3 receptor [2] = target: T1, Histamine H3 receptor (Homo sapiens, UniProt Q9Y5N1); test: Displacement of N-alpha-[methyl-3H]-methylhistamine dihydrochloride from recombinant human histamine H3 receptor expressed in CHO-K1 cells assessed as inhibition constant incubated for 30 mins by liquid scintillation analysis; format: cell-based
T1 sequence (Q9Y5N1 whole entry): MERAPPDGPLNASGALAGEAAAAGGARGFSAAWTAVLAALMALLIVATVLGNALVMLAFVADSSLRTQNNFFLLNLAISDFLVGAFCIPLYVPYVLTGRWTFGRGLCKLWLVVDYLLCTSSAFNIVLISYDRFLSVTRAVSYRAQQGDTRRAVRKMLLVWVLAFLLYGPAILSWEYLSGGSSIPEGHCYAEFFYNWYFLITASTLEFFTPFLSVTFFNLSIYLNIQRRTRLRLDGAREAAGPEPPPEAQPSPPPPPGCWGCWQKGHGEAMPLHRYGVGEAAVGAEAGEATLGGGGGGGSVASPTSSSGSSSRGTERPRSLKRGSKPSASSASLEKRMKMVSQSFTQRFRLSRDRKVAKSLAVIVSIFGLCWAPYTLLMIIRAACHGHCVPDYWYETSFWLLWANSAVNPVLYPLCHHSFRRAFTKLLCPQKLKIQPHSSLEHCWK

Histamine H3 receptor [3] = target: Histamine H3 receptor (Rattus norvegicus, UniProt Q9QYN8); test: Displacement of N-alpha-[methyl-3H]-methylhistamine dihydrochloride from Sprague-Dawley rat brain membrane histamine H3 receptor assessed as inhibition constant incubated for 30 mins by liquid scintillation counting analysis; format: cell membranes
Chain of Histamine H3 receptor (Rattus norvegicus, UniProt Q9QYN8) (Q9QYN8 whole entry): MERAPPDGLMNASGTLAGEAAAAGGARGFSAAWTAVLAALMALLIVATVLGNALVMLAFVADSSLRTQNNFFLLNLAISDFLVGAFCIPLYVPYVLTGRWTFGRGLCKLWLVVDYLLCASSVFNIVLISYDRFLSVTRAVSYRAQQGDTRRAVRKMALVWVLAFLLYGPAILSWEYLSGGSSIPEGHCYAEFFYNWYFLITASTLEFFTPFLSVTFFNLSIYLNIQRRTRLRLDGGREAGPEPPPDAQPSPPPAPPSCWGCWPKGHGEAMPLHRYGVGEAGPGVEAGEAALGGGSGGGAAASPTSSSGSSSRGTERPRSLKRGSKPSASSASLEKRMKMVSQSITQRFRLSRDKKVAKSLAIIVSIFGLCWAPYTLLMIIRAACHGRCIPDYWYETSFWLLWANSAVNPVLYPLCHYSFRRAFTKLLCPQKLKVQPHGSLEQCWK

Rattus norvegicus [4] = organism: Rattus norvegicus; test: Displacement of [3H]quinuclidinyl benzilate from Wistar rat cortex muscarinic AChR at 3 uM by liquid scintillation counting analysis relative to control; format: tissue-based
Rattus norvegicus [5] = organism: Rattus norvegicus; test: Displacement of [3H]quinuclidinyl benzilate from Wistar rat cortex muscarinic AChR at 1 uM by liquid scintillation counting analysis relative to control; format: tissue-based
Histamine H3 receptor [6] = target: T1, Histamine H3 receptor; test: Inverse agonist activity at recombinant human histamine H3 receptor expressed in CHO-K1 cells preincubated for 10 mins followed by [35S]GTPgammaS addition and measured after 60 mins by TopCount NXT based scintillation analysis; format: cell-based
Histamine H3 receptor [7] = target: T1, Histamine H3 receptor; test: Antagonist activity at human histamine H3 receptor expressed in CHO-K1 cells assessed as inhibition of imetit-stimulation ERK1/2 phosphorylation by ELISA analysis; format: cell-based
Histamine H3 receptor [8] = target: T1, Histamine H3 receptor; test: Inverse agonist activity at recombinant human histamine H3 receptor expressed in CHO-K1 cells assessed as maximal efficacy preincubated for 10 mins followed by [35S]GTPgammaS addition and measured after 60 mins by TopCount NXT based scintillation analysis relative to control; format: cell-based; conditions: filed as inverse agonist, time 70.0 min
[9] = Selectivity index, ratio of Ki for displacement of [3H]quinuclidinyl benzilate from Wistar rat cortex muscarinic AChR to Ki for N-alpha-[methyl-3H]-methylhistamine dihydrochloride from Sprague-Dawley rat brain membrane histamine H3 receptor
[10] = target: Histamine H3 receptor (Rattus norvegicus) (UniProt Q9QYN8); test: Displacement of N-alpha-[methyl-3H]-methylhistamine dihydrochloride from Sprague-Dawley rat brain membrane histamine H3 receptor at 300 nM incubated for 30 mins by liquid scintillation counting analysis relative to control; format: cell membranes
Chain of Histamine H3 receptor (Rattus norvegicus) (Q9QYN8 whole entry): as above

Row | Structure (SMILES) | Ki [1] [nM] | Ki (Histamine H3 receptor [2]) [nM] | Ki (Histamine H3 receptor [3]) [nM] | Activity (Rattus norvegicus [4]) [%] | Activity (Rattus norvegicus [5]) [%] | EC50 (Histamine H3 receptor [6]) [nM] | IC50 (Histamine H3 receptor [7]) [nM] | Emax (Histamine H3 receptor [8]) [%] | Ratio Ki [9] | Activity [10] [%]
1 | C[C@]12CC[C@@H]3c4ccc(OCc5cccnc5)cc4CC[C@H]3[C@@H]1CC[C@@H]2N1CCCC1 | 797 | 3 | 19 | 57 | – | – | – | – | – | –
2 | C[C@]12CC[C@@H]3c4ccc(OCCCCN5CCCC5)cc4CC[C@H]3[C@@H]1CC[C@@H]2N1CCCC1 | – | 0.8 | 24.8 | – | 73 | 0.7 | 7.5 | – | – | –
3 | S=C(NC1CCCCC1)N1CCC(c2cnc[nH]2)CC1 [THIOPERAMIDE] | – | – | 23 | – | – | – | – | 50 | – | –
4 | C[C@]12CC[C@H]3[C@@H](CC=C4C[C@@H](OCCCN5CCCC5)CC[C@@]43C)[C@@H]1CC[C@@H]2N1CCCC1 | – | 4.3 | 10.2 | 92 | – | – | – | – | – | –
5 | C[C@@]12CC[C@@H]3c4ccc(OCCCN5CCCC5)cc4CC[C@H]3[C@@H]1CCC2N1CCCC1 (some centres not stated) | – | 1.4 | 6.1 | – | 71 | 0.8 | 16 | – | – | –
6 | CN1CCC[C@H]2[C@@H]3CC[C@H]4C[C@@H](OC(=O)CCN5CCCC5)CC[C@]4(C)[C@H]3CC[C@@]21C | – | 10 | 39 | – | 44 | – | – | – | – | –
7 | Clc1ccc(CCCOCCCN2CCCCC2)cc1 [PITOLISANT] | 19 | – | – | – | – | – | – | 55 | – | –
8 | C[C@H]1CCCN1CCCOc1ccc2c(c1)CC[C@@H]1[C@@H]2CC[C@]2(C)[C@@H](N3CCCC3)CC[C@@H]12 | 122 | 0.3 | 5.6 | – | 76 | 0.6 | 11.6 | – | 22 | –
9 | C[C@]12CC[C@@H]3c4ccc(OCCCN5CCC(C(N)=O)CC5)cc4CC[C@H]3[C@@H]1CC[C@@H]2N1CCCC1 | – | 7 | 3.1 | – | 37 | 3.9 | 3 | – | – | –
10 | C[C@]12CC[C@@H]3c4ccc(OCCCN5CCCCCC5)cc4CC[C@H]3[C@@H]1CC[C@@H]2N1CCCC1 | – | 0.6 | 2.1 | – | 77 | 0.6 | 17.5 | – | – | –
11 | C[C@H]1[C@H]2CC[C@H]3[C@@H]4CC=C5C[C@@H](N(C)C)CC[C@]5(C)[C@H]4CC[C@]23CN1C | – | – | – | – | 84 | – | – | – | – | 34
12 | C[C@]12CC[C@@H]3c4ccc(OCc5ccc(Cl)cn5)cc4CC[C@H]3[C@@H]1CC[C@@H]2N1CCCC1 | 705 | 1.6 | 49 | 66 | – | – | – | – | – | –
